The experiment concerns the target SIK2 (Homo sapiens, UniProt Q9H0K1). Put plainly: SIK2 Enzymatic Assay High Version 2 (High ATP). Conditions: enzyme 6 nM, 6 mM ATP and 400 μM HDAC5tide (each 2× final concentration); 30 minutes pre-incubation, 2 hours; ADP-Glo Max luminescence; read-out: SIK2 high ATP IC50 (μM) (Test Example 2). The class given is biochemical. A digest of the protocol:
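At room temperature, enzyme (6 nM, 2× final) was preincubated with compound for 30 min, then 6 mM ATP and 400 μM HDAC5tide (both 2× final) were added for 2 h. ADP formed was measured by ADP-Glo Max (2 h reagent, 1 h detection) using luminescence.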

Bounds are passed on as bounds.

SIK2, sequence (Q9H0K1 whole entry, species assumed): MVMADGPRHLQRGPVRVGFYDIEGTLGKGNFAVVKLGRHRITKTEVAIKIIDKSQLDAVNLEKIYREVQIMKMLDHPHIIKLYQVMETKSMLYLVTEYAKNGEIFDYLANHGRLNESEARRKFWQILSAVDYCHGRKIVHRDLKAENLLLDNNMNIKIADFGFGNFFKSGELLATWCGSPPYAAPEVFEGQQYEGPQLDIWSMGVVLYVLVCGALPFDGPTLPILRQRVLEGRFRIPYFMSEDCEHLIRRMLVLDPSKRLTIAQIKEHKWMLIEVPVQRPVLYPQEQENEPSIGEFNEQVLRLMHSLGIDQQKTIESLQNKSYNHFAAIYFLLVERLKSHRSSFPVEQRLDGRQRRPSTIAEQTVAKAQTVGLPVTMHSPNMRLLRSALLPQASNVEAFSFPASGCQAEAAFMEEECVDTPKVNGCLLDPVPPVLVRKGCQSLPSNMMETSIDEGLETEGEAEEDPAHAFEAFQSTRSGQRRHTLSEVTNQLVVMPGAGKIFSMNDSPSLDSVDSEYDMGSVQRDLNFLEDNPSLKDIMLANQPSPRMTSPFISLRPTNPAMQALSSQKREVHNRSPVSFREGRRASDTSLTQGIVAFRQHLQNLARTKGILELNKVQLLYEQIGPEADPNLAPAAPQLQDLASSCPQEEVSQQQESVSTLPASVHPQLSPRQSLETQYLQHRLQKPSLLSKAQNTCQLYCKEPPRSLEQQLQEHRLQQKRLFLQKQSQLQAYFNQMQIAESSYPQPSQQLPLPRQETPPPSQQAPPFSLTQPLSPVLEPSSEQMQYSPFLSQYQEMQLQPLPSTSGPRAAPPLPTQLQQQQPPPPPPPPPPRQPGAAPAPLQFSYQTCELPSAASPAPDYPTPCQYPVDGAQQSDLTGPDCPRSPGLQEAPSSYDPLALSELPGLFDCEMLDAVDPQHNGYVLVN

One may read the IC50 as the midpoint of a concentration-inhibition curve. As to `Cc1cc(Nc2cc3cc(-c4cc(OC(F)F)ncc4O[C@H]4CC[C@H](O)CC4)ccn3n2)nc(C)n1` [Example 677, (1r,4r)-4-[[6-(difluoromethoxy)-4-[2-[(2,6-dimethylpyrimidin-4-yl)amino]pyrazolo[1,5-a]pyridin-5-yl]-3-pyridyl]oxy]cyclohexanol], the IC50 is 0.000935 µM.
With `Cc1cc(Nc2cc3cc(-c4cc(OCCO)ncc4OCC(C)(C)C#N)ccn3n2)nc(C)n1` [Example 678, 3-[[4-[2-[(2,6-dimethylpyrimidin-4-yl)amino]pyrazolo[1,5-a]pyridin-5-yl]-6-(2-hydroxyethoxy)-3-pyridyl]oxy]-2,2-dimethyl-propanenitrile] the figure was 0.0443 µM.
`Cc1cc(Nc2cc3cc(-c4cc(OC(F)F)ncc4OCC(C)(C)O)ccn3n2)nc(C)n1` [Example 679, 1-[[6-(difluoromethoxy)-4-[2-[(2,6-dimethylpyrimidin-4-yl)amino]pyrazolo[1,5-a]pyridin-5-yl]-3-pyridyl]oxy]-2-methyl-propan-2-ol]: the IC50 came to 0.00319 µM.
Consider `Cc1cc(Nc2cc3cc(-c4cc(OC(F)F)ncc4OCC(C)(C)C#N)ccn3n2)nc(N)n1` [Example 682, 3-[[4-[2-[(2-amino-6-methyl-pyrimidin-4-yl)amino]pyrazolo[1,5-a]pyridin-5-yl]-6-(difluoromethoxy)-3-pyridyl]oxy]-2,2-dimethyl-propanenitrile], for which the 50% inhibitory concentration (IC50) was less than 0.000847 µM.
For `Cc1cncc(Nc2cc3cc(-c4cc(OC(F)F)ncc4OCC(C)(C)C#N)ccn3n2)n1` [Example 683, 3-[[6-(difluoromethoxy)-4-[2-[(6-methylpyrazin-2-yl)amino]pyrazolo[1,5-a]pyridin-5-yl]-3-pyridyl]oxy]-2,2-dimethyl-propanenitrile], the IC50 was determined as 0.000974 µM.
For `Cc1cc(Nc2cc3cc(-c4cc(OC(F)F)ncc4OCC(C)(C)C#N)ccn3n2)nn(C)c1=O` [Example 684, 3-[[6-(difluoromethoxy)-4-[2-[(1,5-dimethyl-6-oxo-pyridazin-3-yl)amino]pyrazolo[1,5-a]pyridin-5-yl]-3-pyridyl]oxy]-2,2-dimethyl-propanenitrile], the IC50 is 0.0102 µM.
In the case of `Cc1cc(Nc2cc3cc(-c4cc(OC(F)F)ncc4OCC(C)(C)C#N)ccn3n2)ncn1` [Example 685, 3-[[6-(difluoromethoxy)-4-[2-[(6-methylpyrimidin-4-yl)amino]pyrazolo[1,5-a]pyridin-5-yl]-3-pyridyl]oxy]-2,2-dimethyl-propanenitrile] it was 0.0312 µM.
For the compound `Cc1cc(-c2ccn3nc(Nc4cc(C)nc(C)n4)cc3c2)c(OC[C@H]2C[C@H](C#N)C2)cn1` [Example 686, 3-[[4-[2-[(2,6-dimethylpyrimidin-4-yl)amino]pyrazolo[1,5-a]pyridin-5-yl]-6-methyl-3-pyridyl]oxymethyl]cyclobutanecarbonitrile], the half-inhibitory concentration (IC50) is 0.0179 µM.
`Cc1cc(-c2ccn3nc(Nc4cc(C)nc(C)n4)cc3c2)c(OC[C@H]2C[C@@H](C#N)C2)cn1` [Example 687, 3-[[4-[2-[(2,6-dimethylpyrimidin-4-yl)amino]pyrazolo[1,5-a]pyridin-5-yl]-6-methyl-3-pyridyl]oxymethyl]cyclobutanecarbonitrile]: the IC50 amounted to 0.0759 µM.
For `CC(C)(C#N)COc1cnc(OCC(F)F)cc1-c1ccn2nc(Nc3cccnn3)cc2c1` [Example 688, 3-[[6-(2,2-difluoroethoxy)-4-[2-(pyridazin-3-ylamino)pyrazolo[1,5-a]pyridin-5-yl]-3-pyridyl]oxy]-2,2-dimethyl-propanenitrile], the IC50 is 0.00121 µM.
As to `CC(C)(C#N)COc1cnc(OCC(F)F)cc1-c1ccn2nc(Nc3cnccn3)cc2c1` [Example 689, 3-[[6-(2,2-difluoroethoxy)-4-[2-(pyrazin-2-ylamino)pyrazolo[1,5-a]pyridin-5-yl]-3-pyridyl]oxy]-2,2-dimethyl-propanenitrile], the IC50 stood at 0.00136 µM.
Consider `Cc1cc(Nc2cc3cc(-c4cc(OCC#N)ncc4O[C@H]4CC[C@H](O)CC4)ccn3n2)nc(C)n1` [Example 690, 2-[[4-[2-[(2,6-dimethylpyrimidin-4-yl)amino]pyrazolo[1,5-a]pyridin-5-yl]-5-(4-hydroxycyclohexoxy)-2-pyridyl]oxy]acetonitrile], for which the half-maximal inhibitory concentration (IC50) was 0.00685 µM.
With `CC(C)(C#N)COc1cnc(OC(F)F)cc1-c1ccn2nc(Nc3cncc(N)n3)cc2c1` [Example 691, 3-[[4-[2-[(6-aminopyrazin-2-yl)amino]pyrazolo[1,5-a]pyridin-5-yl]-6-(difluoromethoxy)-3-pyridyl]oxy]-2,2-dimethyl-propanenitrile] the figure was 0.001 µM; with `Cn1cc(Nc2cc3cc(-c4cc(OC(F)F)ncc4OCC(C)(C)C#N)ccn3n2)cn1` [Example 692, 3-[[6-(difluoromethoxy)-4-[2-[(1-methylpyrazol-4-yl)amino]pyrazolo[1,5-a]pyridin-5-yl]-3-pyridyl]oxy]-2,2-dimethyl-propanenitrile], 0.00228 µM; with `Cc1cc(Nc2cc3cc(-c4cc(OCC(F)F)ncc4OCC(C)(C)C#N)ccn3n2)nn(C)c1=O` [Example 693, 3-[[6-(2,2-difluoroethoxy)-4-[2-[(1,5-dimethyl-6-oxo-pyridazin-3-yl)amino]pyrazolo[1,5-a]pyridin-5-yl]-3-pyridyl]oxy]-2,2-dimethyl-propanenitrile], 0.0766 µM.
Turning to `CC(C)(C#N)COc1cnc(OC(F)F)cc1-c1ccn2nc(Nc3cccnc3)cc2c1` [Example 694, 3-[[6-(difluoromethoxy)-4-[2-(3-pyridylamino)pyrazolo[1,5-a]pyridin-5-yl]-3-pyridyl]oxy]-2,2-dimethyl-propanenitrile], the IC50 is 0.0195 µM.
With `CC(C)(C#N)COc1cnc(OC(F)F)cc1-c1ccn2nc(Nc3ccc(CN4CCOCC4)cn3)cc2c1` [Example 695, 3-[[6-(difluoromethoxy)-4-[2-[[5-(morpholinomethyl)-2-pyridyl]amino]pyrazolo[1,5-a]pyridin-5-yl]-3-pyridyl]oxy]-2,2-dimethyl-propanenitrile] the figure was 0.117 µM; with `Cc1cncc(Nc2cc3cc(-c4cc(OCC(F)F)ncc4OCC(C)(C)C#N)ccn3n2)n1` [Example 696, 3-[[6-(2,2-difluoroethoxy)-4-[2-[(6-methylpyrazin-2-yl)amino]pyrazolo[1,5-a]pyridin-5-yl]-3-pyridyl]oxy]-2,2-dimethyl-propanenitrile], 0.0821 µM.
Consider `Cn1nc(Nc2cc3cc(-c4cc(OCC(F)F)ncc4OCC(C)(C)C#N)ccn3n2)ccc1=O` [Example 697, 3-[[6-(2,2-difluoroethoxy)-4-[2-[(1-methyl-6-oxo-pyridazin-3-yl)amino]pyrazolo[1,5-a]pyridin-5-yl]-3-pyridyl]oxy]-2,2-dimethyl-propanenitrile], for which the IC50 amounted to 0.021 µM.
Regarding `COc1ccnc(Nc2cc3cc(-c4cc(OC(F)F)ncc4OCC(C)(C)C#N)ccn3n2)n1` [Example 698, 3-[[6-(difluoromethoxy)-4-[2-[(4-methoxypyrimidin-2-yl)amino]pyrazolo[1,5-a]pyridin-5-yl]-3-pyridyl]oxy]-2,2-dimethyl-propanenitrile], the IC50 came to 0.0018 µM.
With `Cn1cnc(Nc2cc3cc(-c4cc(OC(F)F)ncc4OCC(C)(C)C#N)ccn3n2)n1` [Example 699, 3-[[6-(difluoromethoxy)-4-[2-[(1-methyl-1,2,4-triazol-3-yl)amino]pyrazolo[1,5-a]pyridin-5-yl]-3-pyridyl]oxy]-2,2-dimethyl-propanenitrile] the figure was 0.0111 µM; with `CCNc1nc(Nc2cc3cc(-c4cc(OC(F)F)ncc4OCC(C)(C)C#N)ccn3n2)cc(C(F)(F)F)n1` [Example 700, 3-[[6-(difluoromethoxy)-4-[2-[[2-(ethylamino)-6-(trifluoromethyl)pyrimidin-4-yl]amino]pyrazolo[1,5-a]pyridin-5-yl]-3-pyridyl]oxy]-2,2-dimethyl-propanenitrile], 0.00786 µM.
In the case of `Cc1cc(C(=O)NCC(C)(C)O)cc(Nc2cc3cc(-c4cc(OC(F)F)ncc4OCC(C)(C)C#N)ccn3n2)n1` [Example 701, 2-[[5-[5-(2-cyano-2-methyl-propoxy)-2-(difluoromethoxy)-4-pyridyl]pyrazolo[1,5-a]pyridin-2-yl]amino]-N-(2-hydroxy-2-methyl-propyl)-6-methyl-pyridine-4-carboxamide], the half-maximal inhibitory concentration (IC50) was 0.0279 µM.
With `Cn1nc(Nc2cc3cc(-c4cc(OC(F)F)ncc4OCC(C)(C)C#N)ccn3n2)ccc1=O` [Example 702, 3-[[6-(difluoromethoxy)-4-[2-[(1-methyl-6-oxo-pyridazin-3-yl)amino]pyrazolo[1,5-a]pyridin-5-yl]-3-pyridyl]oxy]-2,2-dimethyl-propanenitrile], the IC50 is 0.00317 µM.
Consider `Cc1cc(Nc2cc3cc(-c4cc(OC(F)F)ncc4OCC(C)(C)C#N)ccn3n2)nc(C(C)(C)C)n1` [Example 703, 3-[[4-[2-[(2-tert-butyl-6-methyl-pyrimidin-4-yl)amino]pyrazolo[1,5-a]pyridin-5-yl]-6-(difluoromethoxy)-3-pyridyl]oxy]-2,2-dimethyl-propanenitrile], for which the IC50 was determined as 0.0699 µM.
As for `CC(C)(C#N)COc1cnc(OC(F)F)cc1-c1ccn2nc(Nc3cc(N)cnn3)cc2c1` [Example 704, 3-[[4-[2-[(5-aminopyridazin-3-yl)amino]pyrazolo[1,5-a]pyridin-5-yl]-6-(difluoromethoxy)-3-pyridyl]oxy]-2,2-dimethyl-propanenitrile], the IC50 was determined as 0.0206 µM.
With `CC(C)(C#N)COc1cnc(OC(F)F)cc1-c1ccn2nc(Nc3ccnc(N)n3)cc2c1` [Example 705, 3-[[4-[2-[(2-aminopyrimidin-4-yl)amino]pyrazolo[1,5-a]pyridin-5-yl]-6-(difluoromethoxy)-3-pyridyl]oxy]-2,2-dimethyl-propanenitrile], the IC50 was determined as 0.0306 µM.
With `CC(C)(C#N)COc1cnc(OC(F)F)cc1-c1ccn2nc(Nc3cc4n(n3)CCNC4)cc2c1` [Example 706, 3-[[6-(difluoromethoxy)-4-[2-(4,5,6,7-tetrahydropyrazolo[1,5-a]pyrazin-2-ylamino)pyrazolo[1,5-a]pyridin-5-yl]-3-pyridyl]oxy]-2,2-dimethyl-propanenitrile] the figure was 0.0755 µM.

The record behind these values is patent publication US20240158392A1 (Janssen Biotech, Inc., priority 2021, published 2024).
